Here are results for nine compounds from PMC9502539, “1,2,3-Triazole-Benzofused Molecular Conjugates as Potential Antiviral Agents against SARS-CoV-2 Virus Variants” (Life, 2022).

Data set [1] deals with SARS-CoV-2. The following applies: cited from earlier work.
The next data set addresses T1, SARS-CoV-2 spike protein (Severe acute respiratory syndrome coronavirus 2, UniProt P0DTC2).
T1 construct: purchased Biosource, Muskego, WI, USA
As to the kind of experiment: biochemical. In kind it is binding. To be noted: read-out: remaining activity % of SARS-CoV-2 spike proteins; for remaining activity at 0.1 µM: tested concentration 100 nM; for remaining activity at 0.2 µM: tested concentration 200 nM; for remaining activity at 0.5 µM: tested concentration 500 nM; for remaining activity at 0.75 µM: tested concentration 750 nM; for remaining activity at 1 µM: tested concentration 1000 nM.

Data set [2] concerns SARS-CoV-2. Kind of data set: microbe, parasite or virus in culture. In kind it is cell-based. The following applies: for EC50: Severe acute respiratory syndrome coronavirus 2, Vero C1008.
A short description of another data set: in vitro. The following applies: African green monkey.
The test system of a further data set is IL-6. Kind of data set: Proinflammatory cytokine production (ELISA) in infected cells. In kind it is cell-based. The following applies: infected cells treated with compound vs infected untreated. Background: In an ELISA, binding on a coated surface is turned into a signal by an enzyme label.
A further data set concerns IL-1β. The data set is described as above. In kind it is cell-based. The following applies: infected cells treated with compound vs infected untreated.

In brackets after ≈: the same amount, converted by molar mass.

In the case of `Fc1ccc2nc(C(F)(F)F)cc(OCc3cn(-c4ccccc4Cl)nn3)c2c1` [10 g, 4-((1-(2-chlorophenyl)-1H-1,2,3-triazol-4-yl)methoxy)-6-fluoro-2-(trifluoromethyl)quinoline], the “antiviral activity against SARS-CoV-2” value in the data set on SARS-CoV-2 [1] was “high antiviral activity”.
Regarding `O=C(Cn1cc(CSc2nc3ccccc3n2Cc2cn(CC(=O)NNC(=S)Nc3ccc(F)cc3)nn2)nn1)NNC(=S)Nc1ccc(F)cc1` [compound 5], on SARS-CoV-2 spike protein, the remaining activity at 0.1 µM was found to be 83.8%, the remaining activity at 0.2 µM came out at 70.2%, the remaining activity at 0.5 µM amounted to 45.8% and the remaining activity at 0.75 µM was 32%. The remaining activity at 1 µM on SARS-CoV-2 spike protein is 26%. In addition, in the data set on SARS-CoV-2 [2], the “Selectivity Index (SI)” value is listed as 8.82 and a half-maximal response (EC50) required 231 µg/mL (≈ 303 µM). The CC50 in the data set “in vitro” was 2040 µg/mL (≈ 2670 µM).
Consider `Nn1c(Cn2cc(CSc3nc4ccccc4n3Cc3cn(Cc4n[nH]c(=S)n4N)nn3)nn2)n[nH]c1=S` [compound 7], for which, on SARS-CoV-2 spike protein, the remaining activity at 0.1 µM amounted to 86.1%, the remaining activity at 0.2 µM was found to be 77.2%, the remaining activity at 0.5 µM stood at 58.6% and the remaining activity at 0.75 µM was found to be 44%. The remaining activity at 1 µM at SARS-CoV-2 spike protein was found to be 40%. For the same compound, in the data set on SARS-CoV-2 [2], the “Selectivity Index (SI)” value is reported as 5.0 and the EC50 came out at 306 µg/mL (≈ 538 µM). The compound further registered a CC50 in the data set “in vitro” of 1530 µg/mL (≈ 2690 µM).
`O=C(Cn1cc(CSc2nc3ccccc3n2Cc2cn(CC(=O)NNC(=S)Nc3ccccc3)nn2)nn1)NNC(=S)Nc1ccccc1` [compound 4]: at SARS-CoV-2 spike protein, the remaining activity at 0.1 µM is 74.6%, the remaining activity at 0.2 µM turned out to be 46%, the remaining activity at 0.5 µM was 21.9% and the remaining activity at 0.75 µM is 20%. Moreover, the remaining activity at 1 µM at SARS-CoV-2 spike protein turned out to be 18%. In addition, in the data set with SARS-CoV-2 [2], the “Selectivity Index (SI)” value is 10.90 and the midpoint of the response, the EC50, lay at 174 µg/mL (≈ 240 µM). This compound had a CC50 in the data set “in vitro” of 1900 µg/mL (≈ 2610 µM).
Regarding `Cc1ccc2nc(NC(=O)Cn3cc(CN4C(=O)C(=O)c5ccccc54)nn3)sc2c1` [compound 12], at SARS-CoV-2 spike protein, the remaining activity at 0.1 µM was 95.9%, the remaining activity at 0.2 µM stood at 92.5%, the remaining activity at 0.5 µM was 82% and the remaining activity at 0.75 µM is 82%. Moreover, at SARS-CoV-2 spike protein, the remaining activity at 1 µM amounted to 70%. In addition, in the data set on SARS-CoV-2 [2], the “Selectivity Index (SI)” value turned out to be 0.87 and the EC50 turned out to be 382 µg/mL (≈ 882 µM). Besides, the CC50 in “in vitro” is 332 µg/mL (≈ 767 µM).
For `CC(C)(O/N=C(\C(=O)N[C@@H]1C(=O)N2C(C(=O)[O-])=C(C[n+]3ccccc3)CS[C@H]12)c1csc(N)n1)C(=O)O` [Ceftazidime, ceftazidime, reference compound], at SARS-CoV-2 spike protein, the remaining activity at 0.1 µM amounted to 99%, the remaining activity at 0.2 µM turned out to be 79%, the remaining activity at 0.5 µM is 59% and the remaining activity at 0.75 µM was 55.1%. The remaining activity at 1 µM at SARS-CoV-2 spike protein was 45.2%. Also, in the data set on SARS-CoV-2 [2], the “Selectivity Index (SI)” value is 12.29 and the EC50 was 85.1 µg/mL (≈ 156 µM). In “in vitro”, this compound showed a CC50 of 1050 µg/mL (≈ 1910 µM).
Take `S=c1[nH]nc(Cn2cc(CSc3nc4ccccc4n3Cc3cn(Cc4n[nH]c(=S)n4-c4ccccc4)nn3)nn2)n1-c1ccccc1` [compound 6]: on SARS-CoV-2 spike protein, the remaining activity at 0.1 µM was determined as 79.9%, the remaining activity at 0.2 µM amounted to 65.4%, the remaining activity at 0.5 µM stood at 38.2% and the remaining activity at 0.75 µM came out at 27%. Moreover, the remaining activity at 1 µM at SARS-CoV-2 spike protein turned out to be 20%. Besides, in the data set on SARS-CoV-2 [2], the “Selectivity Index (SI)” value amounted to 6.87 and a half-maximal response (EC50) required 155 µg/mL (≈ 224 µM). The compound further had a CC50 in “in vitro” of 1070 µg/mL (≈ 1540 µM).
Consider `COc1ccc(-n2cc(CCOc3cc(C(F)(F)F)nc4ccc(F)cc34)nn2)cc1` [12c, 6-fluoro-4-(2-(1-(4-methoxyphenyl)-1H-1,2,3-triazol-4-yl)ethoxy)-2-(trifluoromethyl)quinoline], for which the “antiviral activity against SARS-CoV-2” value in the data set on SARS-CoV-2 [1] was “high antiviral activity”.
In the case of `Cc1onc(NS(=O)(=O)c2ccc(-n3cc(CSc4nc5ccccc5n4Cc4cn(-c5ccc(S(=O)(=O)Nc6noc(C)c6C)cc5)nn4)nn3)cc2)c1C` [compound 9], the “IL-6 protein expression level” value in the data set on IL-6 is on record as “noticeably reduced”. Moreover, the “IL-1β protein expression level” value with IL-1β is reported as “noticeably reduced”. Moreover, on SARS-CoV-2 spike protein, the remaining activity at 0.1 µM was 67.1%, the remaining activity at 0.2 µM is 32.7%, the remaining activity at 0.5 µM stood at 11.4% and the remaining activity at 0.75 µM was 12%. Further, the remaining activity at 1 µM at SARS-CoV-2 spike protein came out at 5%. In the data set on SARS-CoV-2 [2], this compound came in with an EC50 of 80.4 µg/mL (≈ 98.9 µM). In the data set “in vitro”, this compound yielded a CC50 of 1030 µg/mL (≈ 1260 µM).

By remaining activity is commonly meant the activity still measured, relative to the control. One may read the EC50 as the concentration that produces a half-maximal response.
